Results published in article PMC11224556, “Next-generation of BBQ analogues that selectively target breast cancer” (Frontiers in Chemistry, 2024).
Where two headings read alike, the source gives them in different places.

Tests used:
Assay type in all cases: cell-based, human
A2780 (ovary) cells = test: MTT growth inhibition assay (72 h)
Excerpt: (§1) Each BBQ analogue, 2-14 was screened for their growth inhibition ability (GI50) in a broad panel of cancer cell lines and a non-cancer breast cell line (MCF10A), using the MTT growth inhibition assay (Table 1) ([Baker et al., 2021b]). The cancer panel comprised HT29 (colorectal), U87 (brain), SJ-G2 (brain), A2780 (ovary), Du145 (prostate), BE2-C (neuronal), MIA (pancreas), H460 (lung, ER+), A431 (vulva, ER+ (estrogen receptor positive)), and a wide selection of breast cancer cell lines with varying receptor status including MCF-7 (ER + luminal A), T47D (ER/PR+ (progesterone receptor positive)luminal A), ZR-75-1 (ER/PR + luminal A), BT-474 (ER/PR/HER2+ luminal B), SKBR-3 (HER2+), MDA-MB-468, BT20, and MDA-MB-231 (basal, triple negative (TN) for ER, PR, and HER2).
(§2) Stock solutions were prepared as follows and stored as 20 mM DMSO solutions at −20 °C. All cell lines were cultured in a humidified atmosphere 5% CO2 at 37 °C. The cancer cell lines were maintained in Dulbecco’s modified Eagle’s medium (DMEM) (Trace Biosciences, Australia) supplemented with 10% foetal bovine serum (FBS), 10 mM sodium bicarbonate, penicillin (100 IU/mL), streptomycin (100 μg/mL), and glutamine (4 mM). The non-cancer MCF10A cell line was cultured in DMEM:F12 (1:1) cell culture media, 5% heat inactivated horse serum, supplemented with penicillin (50 IU/mL), streptomycin (50 μg/mL), 20 mM Hepes, L-glutamine (2 mM), epidermal growth factor (20 ng/mL), hydrocortisone (500 ng/mL), cholera toxin (100 ng/mL), and insulin (10 μg/mL). The AhR reporter cell line HT29-Lucia™ (Invivogen, United States) was maintained in DMEM supplemented with 10% heat inactivated FBS, L-glutamine (2 mM), penicillin (100 IU/mL), streptomycin (100 μg/mL), 100 μg/mL Normocin™, and 100 μg/mL of the selective antibiotic Zeocin™. All cell lines were purchased from the American Type Culture Collection (ATCC), except for A2780 and A431 which were from the European Collection of Authenticated Cell Cultures (ECACC), and SJ-G2 cell line which was from Dr Mary Danks, St Jude Children’s Research hospital, Memphis, TN.
(§3) Cells in logarithmic growth were transferred to 96-well plates. Cytotoxicity was determined by plating cells in duplicate in 100 μL medium at a density of 2,500–4,000 cells/well in 96 well plates. On day 0, (24 h after plating) when the cells were in logarithmic growth 100 μL medium with or without the test agent was added to each well. After 72 h drug exposure growth inhibitory effects were evaluated using the MTT (3-[4,5-dimethylthiazol-2-yl]-2,5-diphenyltetrazolium bromide) assay with absorbance read at 540 nm. An eight-point dose response curve was produced, using MS Excel software. From these dose-response curves, the GI50 value was calculated, representing the drug concentration at which cell growth is 50% inhibited based on the difference between the optical density values on day 0 and those at the end of drug exposure ([Bradshaw et al., 2008]; [Zhang et al., 2009]). Each data point was conducted in duplicate and the mean ± S.E.M. calculated from four to five replicates (n = 4 or 5), which were performed on separate occasions and separate cell line passages. Where shown, significant test results were determined using T-test analysis at p < 0.01 and p < 0.05 with a two tail distribution.

A431 (vulva/skin) cells = test: MTT growth inhibition assay (72 h)
Excerpt: as §1, §2, §3

BE2-C (neuronal) cells = test: MTT growth inhibition assay (72 h); settings: Neuron
Excerpt: as §1, §2, §3

BT20 breast cancer cells = test: MTT growth inhibition assay (72 h)
Excerpt: as §1, §2, §3

[1] = test system: BT474 breast cancer cells; test: MTT growth inhibition assay (72 h)
Excerpt: as §1, §2, §3

Du145 (prostate) cells = test: MTT growth inhibition assay (72 h)
Excerpt: as §1, §2, §3

H460 (lung) cells = test: MTT growth inhibition assay (72 h)
Excerpt: as §1, §2, §3

HT29 (colorectal) cells = test: MTT growth inhibition assay (72 h)
Excerpt: as §1, §2, §3

[2] = test system: MCF-7 breast cancer cells; test: MTT growth inhibition assay (72 h)
Excerpt: as §1, §2, §3

[3] = test system: MCF10A normal breast cells; test: MTT growth inhibition assay (72 h)
Excerpt: as §1, §2, §3

[4] = test system: MDA-MB-231 breast cancer cells; test: MTT growth inhibition assay (72 h); settings: MDA-MB-231, Breast (TN)
Excerpt: as §1, §2, §3

[5] = test system: MDA-MB-468 breast cancer cells; test: MTT growth inhibition assay (72 h); settings: MDA-MB-468, Breast (TN)
Excerpt: as §1, §2, §3

MIA (pancreas) cells = test: MTT growth inhibition assay (72 h)
Excerpt: as §1, §2, §3

SJ-G2 (brain) cells = test: MTT growth inhibition assay (72 h); settings: SJ-G2, Brain (GBM)
Excerpt: as §1, §2, §3

[6] = test system: SKBR3 breast cancer cells; test: MTT growth inhibition assay (72 h)
Excerpt: as §1, §2, §3

T47D breast cancer cells = test: MTT growth inhibition assay (72 h); settings: Breast (ER/PR)
Excerpt: as §1, §2, §3

U87 (brain) cells = test: MTT growth inhibition assay (72 h); settings: U87, Brain (GBM)
Excerpt: as §1, §2, §3

[7] = test system: ZR-75-1 breast cancer cells; test: MTT growth inhibition assay (72 h); settings: ZR-75-1, Breast (ER/PR)
Excerpt: as §1, §2, §3

[8] = test system: broad panel of cancer cell lines and non-cancer breast cell line MCF10A; test: MTT growth inhibition: GI50 ranges and selectivity across the cell line panel
Excerpt: as §1, §2, §3

[9] = Homo sapiens, A-431, A431, Skin (ER)
[10] = Homo sapiens, BT-20, BT20, Breast (TN)
[11] = Homo sapiens, BT-474, BT474, Breast (ER/PR/HER2)
[12] = Homo sapiens, NCI-H460, H460, Lung (ER)
[13] = Homo sapiens, HT-29, HT29, Colon
[14] = Homo sapiens, MCF7, MCF-7, Breast (ER)
[15] = Homo sapiens, SK-BR-3, SKBR3, Breast (HER2)

“9-Methyl-7H-benzo[de]benzo[4,5]imidazo[2,1-a]isoquinolin-7-one (8a) and 12-methyl-7H-benzo[de]benzo[4,5]imidazo[2,1-a]isoquinolin-7-one (8b) [Compound 8]” was tested, and the GI50 (A2780 (ovary) cells) was 11 ± 0.58 µM, the GI50 (A431 (vulva/skin) cells; A431, Skin (ER)) was 0.56 ± 0.14 µM and the GI50 (BE2-C (neuronal) cells) was 15 ± 10 µM. It also gave a GI50 (BT20 breast cancer cells; BT20, Breast (TN)) of 1.4 ± 0.8 µM, a GI50 ([1]; BT474, Breast (ER/PR/HER2)) of 4.6 ± 2.7 µM and a GI50 (Du145 (prostate) cells) of 38 ± 6.9 µM. For the same compound, the GI50 (H460 (lung) cells; H460, Lung (ER)) was 27 ± 6.7 µM, the GI50 (HT29 (colorectal) cells; HT29, Colon) was 3.7 ± 0.69 µM and the GI50 ([2]; MCF-7, Breast (ER)) was 2.8 ± 0.61 µM. It also gave a GI50 [3] of 2 ± 1.3 µM, a GI50 [4] of 8.2 ± 3.3 µM and a GI50 [5] of 0.056 ± 0.024 µM. The GI50 (MIA (pancreas) cells) was 20 ± 10 µM, the GI50 (SJ-G2 (brain) cells) was 24 ± 8.4 µM and the GI50 ([6]; SKBR3, Breast (HER2)) was 0.27 ± 0.027 µM. For the same compound, the GI50 (T47D breast cancer cells) was 0.8 ± 0.11 µM, the GI50 (U87 (brain) cells) was 38 ± 2.5 µM and the GI50 [7] was 0.59 ± 0.38 µM.

In the case of `O=c1c2cccc3cccc(c4n1Cc1ccccc1N=4)c32` [Compound 13, 7H,9H-benzo[4,5]isoquinolino[1,2-b]quinazolin-7-one], the GI50 (A2780 (ovary) cells; Homo sapiens) is reported as > 50 µM, the GI50 (A431 (vulva/skin) cells; [9]) is reported as 43 ± 4.4 µM and the GI50 (BE2-C (neuronal) cells; Homo sapiens, BE(2)-C) is reported as 42 ± 1.5 µM. The GI50 (BT20 breast cancer cells; [10]) was > 50 µM, the GI50 [1, 11] was > 50 µM and the GI50 (Du145 (prostate) cells; Homo sapiens, DU-145) was > 50 µM. For the same compound, the GI50 (H460 (lung) cells; [12]) was > 50 µM, the GI50 (HT29 (colorectal) cells; [13]) was > 50 µM and the GI50 [2, 14] was 32 ± 1.9 µM. For the same compound, the GI50 ([3]; Homo sapiens, MCF-10A) was 38 ± 1.2 µM, the GI50 ([4]; Homo sapiens) was > 50 µM and the GI50 ([5]; Homo sapiens) was 36 ± 3.8 µM. For the same compound, the GI50 (MIA (pancreas) cells; Homo sapiens) was 38 ± 1 µM, the GI50 (SJ-G2 (brain) cells; Homo sapiens) was 56 ± 3.7 µM and the GI50 [6, 15] was 47 ± 2.7 µM. The GI50 (T47D breast cancer cells; Homo sapiens) was 40 ± 3.3 µM, the GI50 (U87 (brain) cells; Homo sapiens) was > 50 µM and the GI50 ([7]; Homo sapiens) was 35 ± 1 µM.

“7-Oxo-7H-benzo[de]benzo[4,5]imidazo[2,1-a]isoquinoline-10-carbonitrile (9a) and 7-oxo-7H-benzo[de]benzo[4,5]imidazo[2,1-a]isoquinoline-11-carbonitrile (9b) [Compound 9]” was tested, and the GI50 (A2780 (ovary) cells) was 7 ± 0.64 µM, the GI50 (A431 (vulva/skin) cells; A431, Skin (ER)) was 1.1 ± 0.1 µM and the GI50 (BE2-C (neuronal) cells) was > 50 µM. The GI50 (BT20 breast cancer cells; BT20, Breast (TN)) was 9.3 ± 8.4 µM, the GI50 ([1]; BT474, Breast (ER/PR/HER2)) was > 50 µM and the GI50 (Du145 (prostate) cells) was 45 ± 1.7 µM. It also gave a GI50 (H460 (lung) cells; H460, Lung (ER)) of 41 ± 5.9 µM, a GI50 (HT29 (colorectal) cells; HT29, Colon) of 44 ± 6.3 µM and a GI50 ([2]; MCF-7, Breast (ER)) of 25 ± 8.3 µM. The GI50 [3] was 7.8 ± 1.62 µM, the GI50 [4] was 38 ± 6 µM and the GI50 [5] was 0.074 ± 0.021 µM. It also gave a GI50 (MIA (pancreas) cells) of 41 ± 9.5 µM, a GI50 (SJ-G2 (brain) cells) of 26 ± 3.8 µM and a GI50 ([6]; SKBR3, Breast (HER2)) of 0.27 ± 0.018 µM. For the same compound, the GI50 (T47D breast cancer cells) was 4.2 ± 0.73 µM, the GI50 (U87 (brain) cells) was 43 ± 4 µM and the GI50 [7] was 0.089 ± 0.04 µM.

`O=c1c2cccc3cccc(c32)c2nc3ccccc3n12` [Compound 5, 7H-Benzo[de]benzo[4,5]imidazo[2,1-a]isoquinolin-7-one] gave a GI50 (A2780 (ovary) cells; Homo sapiens) of 2.2 ± 0.21 µM, a GI50 (A431 (vulva/skin) cells; [9]) of 0.05 ± 0.013 µM and a GI50 (BE2-C (neuronal) cells; Homo sapiens, BE(2)-C) of 5.1 ± 0.74 µM. It also gave a GI50 (BT20 breast cancer cells; [10]) of 0.41 ± 0.39 µM, a GI50 [1, 11] of 1.5 ± 1.3 µM and a GI50 (Du145 (prostate) cells; Homo sapiens, DU-145) of 4.1 ± 0.03 µM. For the same compound, the GI50 (H460 (lung) cells; [12]) was 0.61 ± 0.13 µM, the GI50 (HT29 (colorectal) cells; [13]) was 2.1 ± 0.3 µM and the GI50 [2, 14] was 2.1 ± 0.44 µM. It also gave a GI50 ([3]; Homo sapiens, MCF-10A) of 3.2 ± 0.32 µM, a GI50 ([4]; Homo sapiens) of 5.5 ± 1.8 µM and a GI50 (MIA (pancreas) cells; Homo sapiens) of 5.2 ± 0.73 µM. The GI50 (SJ-G2 (brain) cells; Homo sapiens) was 4.6 ± 0.23 µM, the GI50 [6, 15] was 0.032 ± 0.014 µM and the GI50 (T47D breast cancer cells; Homo sapiens) was 0.2 ± 0.073 µM. The GI50 (U87 (brain) cells; Homo sapiens) was 7 ± 0.033 µM, the GI50 ([7]; Homo sapiens) was 0.026 ± 0.015 µM and the “fold greater response (selectivity) in MDA-MB-468 than in normal MCF10A breast cells” value ([8]; GI50 MCF10A / GI50 MDA-MB-468) was 3,200 fold. The “growth inhibition compared with normal cells (fold, range over cell lines)” value ([8]; H460, A431, T47D, ZR-75-1, SKBR3, MDA-MB-468, BT20 vs MCF10A) was 5 to 3200 fold, the GI50 ([8]; Homo sapiens, T47D, ZR-75-1, SKBR3, MDA-MB-468 and BT20, read-out: GI50 (range over cell lines)) was 0.001 to 0.41 µM and the GI50 ([8]; Homo sapiens, all other cell populations (than H460, A431, T47D, ZR-75-1, SKBR3, MDA-MB-468, BT20), read-out: GI50 (range over cell lines)) was 1.5 to 7 µM. The GI50 ([8]; Homo sapiens, other cell lines HT29, U87, SJ-G2, A2780, DU145, BE2-C, MIA, MDA-MB-231, read-out: GI50 (range over cell lines)) was 2.1 to 7 µM, the “fold more potent than head group substituted analogues 3, 4, 6, 7, 8 and 9” value ([8]; across the cell lines examined (Table 1)) was > 10 fold and the GI50 ([8]; select breast cancer cell lines MCF-7, T47D, ZR-75-1, SKBR3, MDA-MB-468, BT20, BT474, read-out: GI50 values (range over cell lines)) was 0.001 to 2.1 µM.
